Laboratory results reported in patent US11279733B2, “Peptide antibiotics” (priority 2017, dated 2022).
Converted amounts (≈) assume the structure as drawn. Positions of bridges follow the written chain, without caps; N, C: chain ends. Non-standard residues stand in square brackets, D forms with d. Residues, ends and D or L forms follow the SMILES beside them. *: point of attachment. Decanoyl(3R-OH) = CCCCCCC[C@@H](O)CC(=O)*; dIgl = N[C@@H](C(=O)O)C1Cc2ccccc2C1; Igl = N[C@H](C(=O)O)C1Cc2ccccc2C1; 3Pal = N[C@@H](Cc1cccnc1)C(=O)O; 4Pal = N[C@@H](Cc1ccncc1)C(=O)O; dChg = N[C@@H](C(=O)O)C1CCCCC1; dDab = NCC[C@@H](N)C(=O)O; Octanoyl = CCCCCCCC(=O)*; dDap = NC[C@@H](N)C(=O)O; Dab = NCC[C@H](N)C(=O)O

What was measured:
[1] = test system: A. baumannii ATCC 19606; conditions: ATCC 19606
Outline: (§1)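 Mid-log cultures grown in Mueller Hinton broth at 37° C were tested by 2-fold broth microdilution at 5×10^5 CFU/mL final. Compounds were dissolved in water and tested over a final range of 32 to 0.015 μg/mL.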

[2] = test system: A. baumannii GN_093 PmxR; conditions: GN 093 PmxR
Outline: as §1

[3] = test system: E. coli ATCC 25922; conditions: ATCC 25922
Outline: as §1

[4] = test system: K. pneumoniae ATCC 13883; conditions: ATCC 13883
Outline: as §1

[5] = test system: K. pneumoniae ATCC 700603, MDR; conditions: ATCC 700603
Outline: as §1

[6] = test system: K. pneumoniae ATCC BAA-2146, NDM-1 pos; conditions: ATCC BAA-2146
Outline: as §1

[7] = test system: K. pneumoniae GN_102 PmxR; conditions: GN 102 PmxR
Outline: as §1

[8] = test system: K. pneumoniae GN_106, PmxR; conditions: GN 106, PmxR
Outline: as §1

[9] = test system: P. aeruginosa ATCC 27853; conditions: ATCC 27853
Outline: as §1

[10] = test system: P. aeruginosa GN_043, PmxR; conditions: polymyxin-resistant
Outline: as §1

[11] = test system: P. aeruginosa GN_105, PmxR; conditions: GN 105, PmxR
Outline: as §1

[12] = test system: S. aureus ATCC 25923, MSSA; conditions: ATCC 25923
Outline: as §1

[13] = in vitro; conditions: human
Outline: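 4000 cells/well, 24 h attach (37 °C, 5% CO2); compound 24 h; 5 μM resazurin 2 h, 37 °C; fluorescence ex/em 560/590. CC50 by curve fit.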

| Structure (SMILES) | MIC A. baumannii ATCC 19606 [1] [mg/L] | MIC A. baumannii GN_093 PmxR [2] [mg/L] | MIC E. coli ATCC 25922 [3] [mg/L] | MIC K. pneumoniae ATCC 13883 [4] [mg/L] | MIC K. pneumoniae ATCC 700603, MDR [5] [mg/L] | MIC K. pneumoniae ATCC BAA-2146, NDM-1 pos [6] [mg/L] | MIC K. pneumoniae GN_102 PmxR [7] [mg/L] | MIC K. pneumoniae GN_106, PmxR [8] [mg/L] | MIC P. aeruginosa ATCC 27853 [9] [mg/L] | MIC P. aeruginosa GN_043, PmxR [10] [mg/L] | MIC P. aeruginosa GN_105, PmxR [11] [mg/L] | MIC S. aureus ATCC 25923, MSSA [12] [mg/L] | CC50 at 24 h [13] [µM] |
| --- | --- | --- | --- | --- | --- | --- | --- | --- | --- | --- | --- | --- | --- |
| CCCCCCC[C@@H](O)CC(=O)N[C@H](CN)C(=O)N[C@H]1CCNC(=O)[C@H](Cc2c[nH]c3ccccc23)NC(=O)[C@H](CCN)NC(=O)[C@H](CCN)NC(=O)[C@H](C2Cc3ccccc3C2)NC(=O)[C@@H](C2Cc3ccccc3C2)NC(=O)[C@H](CCN)NC1=O [compound 8897, 3(R)OH-nC9CO-D-Dap-cyc[L-Dab-L-Dab-D-indanylgly-L-indanylgly-L-Dab-L-Dab-L-Trp]] ({Decanoyl(3R-OH)}-[dDap][Dab][Dab][dIgl][Igl][Dab][Dab]W; lactam 2-C) | 4 (≈ 3.36 µM) | 4 (≈ 3.36 µM) | 2 (≈ 1.68 µM) | 4 (≈ 3.36 µM) | 4 (≈ 3.36 µM) | 4 (≈ 3.36 µM) | 4 (≈ 3.36 µM) | 4 (≈ 3.36 µM) | 4 (≈ 3.36 µM) | 2 (≈ 1.68 µM) | 2 (≈ 1.68 µM) | 2 (≈ 1.68 µM) | 27 |
| CCCCCCCC(=O)N[C@H](CCN)C(=O)N[C@H]1CCNC(=O)[C@H](Cc2c[nH]c3ccccc23)NC(=O)[C@H](CCN)NC(=O)[C@H](CCN)NC(=O)[C@H](C2Cc3ccccc3C2)NC(=O)[C@@H](Cc2ccccc2)NC(=O)[C@H](CCN)NC1=O [compound 8898, nC7CO-D-Dab-cyc[L-Dab-L-Dab-D-Phe-L-indanylgly-L-Dab-L-Dab-L-Trp]] (Octanoyl-[dDab][Dab][Dab][dF][Igl][Dab][Dab]W; lactam 2-C) | 16 (≈ 14.1 µM) | 16 (≈ 14.1 µM) | 4 (≈ 3.53 µM) | 8 (≈ 7.06 µM) | 4 (≈ 3.53 µM) | 4 (≈ 3.53 µM) | 4 (≈ 3.53 µM) | 8 (≈ 7.06 µM) | 4 (≈ 3.53 µM) | 4 (≈ 3.53 µM) | 4 (≈ 3.53 µM) | 4 (≈ 3.53 µM) | 90 |
| CCCCCCC[C@@H](O)CC(=O)N[C@H](CCN)C(=O)N[C@H]1CCNC(=O)[C@H](Cc2c[nH]c3ccccc23)NC(=O)[C@H](CCN)NC(=O)[C@H](CCN)NC(=O)[C@H](CC(C)C)NC(=O)[C@@H](C2CCCCC2)NC(=O)[C@H](CCN)NC1=O [compound 8899, 3(R)OH-nC9CO-D-Dab-cyc[L-Dab-L-Dab-D-Chg-L-Leu-L-Dab-L-Dab-L-Trp]] ({Decanoyl(3R-OH)}-[dDab][Dab][Dab][dChg]L[Dab][Dab]W; lactam 2-C) | 16 (≈ 14.4 µM) | 16 (≈ 14.4 µM) | 4 (≈ 3.61 µM) | 8 (≈ 7.21 µM) | 4 (≈ 3.61 µM) | 4 (≈ 3.61 µM) | 8 (≈ 7.21 µM) | 16 (≈ 14.4 µM) | 4 (≈ 3.61 µM) | 4 (≈ 3.61 µM) | 2 (≈ 1.8 µM) | 8 (≈ 7.21 µM) | 64 |
| CCCCCCCC(=O)N[C@H](CCN)C(=O)N[C@H]1CCNC(=O)[C@H](Cc2c[nH]c3ccccc23)NC(=O)[C@H](CCN)NC(=O)[C@H](CCN)NC(=O)[C@H](CC(C)C)NC(=O)[C@@H](C2Cc3ccccc3C2)NC(=O)[C@H](CCN)NC1=O [compound 8900, nC7CO-D-Dab-cyc[L-Dab-L-Dab-D-indanylgly-L-Leu-L-Dab-L-Dab-L-Trp]] (Octanoyl-[dDab][Dab][Dab][dIgl]L[Dab][Dab]W; lactam 2-C) | 32 (≈ 29.1 µM) | >32 | 4 (≈ 3.64 µM) | 16 (≈ 14.6 µM) | 8 (≈ 7.28 µM) | 8 (≈ 7.28 µM) | 16 (≈ 14.6 µM) | 16 (≈ 14.6 µM) | 4 (≈ 3.64 µM) | 4 (≈ 3.64 µM) | 8 (≈ 7.28 µM) | 8 (≈ 7.28 µM) | 115 |
| CCCCCCCC(=O)N[C@H](CCN)C(=O)N[C@H]1CCNC(=O)[C@H](Cc2c[nH]c3ccccc23)NC(=O)[C@H](CCN)NC(=O)[C@H](CCN)NC(=O)[C@H](CC(C)C)NC(=O)[C@@H](Cc2ccccc2)NC(=O)[C@H](CCN)NC1=O [compound 8901, nC7CO-D-Dab-cyc[L-Dab-L-Dab-D-Phe-L-Leu-L-Dab-L-Dab-L-Trp]] (Octanoyl-[dDab][Dab][Dab][dF]L[Dab][Dab]W; lactam 2-C) | 32 (≈ 29.8 µM) | >32 | 8 (≈ 7.45 µM) | 8 (≈ 7.45 µM) | 8 (≈ 7.45 µM) | 8 (≈ 7.45 µM) | 32 (≈ 29.8 µM) | 32 (≈ 29.8 µM) | 2 (≈ 1.86 µM) | 2 (≈ 1.86 µM) | 8 (≈ 7.45 µM) | 16 (≈ 14.9 µM) | > 300 |
| CCCCCCC[C@@H](O)CC(=O)N[C@H](CCN)C(=O)N[C@H]1CCNC(=O)[C@H](Cc2ccncc2)NC(=O)[C@H](CCN)NC(=O)[C@H](CCN)NC(=O)[C@H](CC(C)C)NC(=O)[C@@H](Cc2ccccc2)NC(=O)[C@H](CCN)NC1=O [compound 8906, 3(R)OH-nC9CO-D-Dab-cyc[L-Dab-L-Dab-D-Phe-L-Leu-L-Dab-L-Dab-L-Ala(4py)]] ({Decanoyl(3R-OH)}-[dDab][Dab][Dab][dF]L[Dab][Dab][4Pal]; lactam 2-C) | >32 | >32 | 4 (≈ 3.71 µM) | 4 (≈ 3.71 µM) | 4 (≈ 3.71 µM) | 8 (≈ 7.41 µM) | 16 (≈ 14.8 µM) | 16 (≈ 14.8 µM) | 1 (≈ 0.926 µM) | 0.5 (≈ 0.463 µM) | 2 (≈ 1.85 µM) | >32 | > 300 |
| CCCCCCC[C@@H](O)CC(=O)N[C@H](CCN)C(=O)N[C@H]1CCNC(=O)[C@H](Cc2cccnc2)NC(=O)[C@H](CCN)NC(=O)[C@H](CCN)NC(=O)[C@H](CC(C)C)NC(=O)[C@@H](Cc2ccccc2)NC(=O)[C@H](CCN)NC1=O [compound 8907, 3(R)OH-nC9CO-D-Dab-cyc[L-Dab-L-Dab-D-Phe-L-Leu-L-Dab-L-Dab-L-Ala(3py)]] ({Decanoyl(3R-OH)}-[dDab][Dab][Dab][dF]L[Dab][Dab][3Pal]; lactam 2-C) | >32 | >32 | 4 (≈ 3.71 µM) | 4 (≈ 3.71 µM) | 4 (≈ 3.71 µM) | 8 (≈ 7.41 µM) | 32 (≈ 29.6 µM) | 8 (≈ 7.41 µM) | 1 (≈ 0.926 µM) | 1 (≈ 0.926 µM) | 1 (≈ 0.926 µM) | >32 | > 300 |
